Tested on: Septoria tritici
Assay: Growth assay with Septoria tritici as indicator fungus (photometric)
Format: cell-based
Conditions: active ingredient concentration in the spray mixture 1 ppm
Experimental: A growth assay was carried out with Septoria tritici as indicator fungus. The fungal growth was measured photometrically by the increase in absorption or light scattering as a function of mycelium density. The data obtained were converted into percent growth inhibition, the absorption of the untreated controls being defined as 0% inhibition and that of a killed spore suspension as reference as 100% inhibition.
The expected efficacies of combinations of active ingredients were determined using Colby's formula (Colby, S. R. (Calculating synergistic and antagonistic responses of herbicide combinations”, Weeds, 15, pp. 20-22, 1967)) and compared with the observed efficacies.
E=x+y−x·y/100 • E expected efficacy, expressed in % of the untreated control, when using the mixture of the active ingredients A and B at the concentrations a and b • x efficacy, expressed in % of the untreated control, when using the active ingredient A at the concentration a • y efficacy, expressed in % of the untreated control, when using the active ingredient B at the concentration b

`COC(=O)N(OC)c1ccccc1COc1ccn(-c2ccc(Cl)cc2)n1` [II, Pyraclostrobin] gave a Growth inhibition of 57%.

Reference: US20080004177A1, “Novel Copper-Containing Formulations” (priority 2003, published 2008)
